According to patent US11465980B2, “6-membered aza-heterocyclic containing delta-opioid receptor modulating compounds, methods of using and making the same” (Trevena, Inc., priority 2015, dated 2022):
Where two headings read alike, the source gives them in different places.

How the values were obtained:
[1] = tested on: rat; assay: Tactile allodynia produced by nitroglycerin (migraine model, rat); format: in vivo; conditions: route sc, nitroglycerin 10 mg/kg ip, p < 0.05 vs vehicle
[2] = tested on: adult male C57 mice; assay: Tail suspension test (TST); format: in vivo, mouse; conditions: route sc, p < 0.05 compared to vehicle-treated mice; for minimal effective dose: Mus musculus, read-out: Active TST Dose
Protocol: The experiments were performed using adult male C57 mice (6-10 weeks of age, 20-30 g, Hilltop Lab, PA). The mice were housed in standard rodent cages with stainless steel mesh wire bar lids in groups of 4 with controlled temperature and light cycle (6:00 a.m.-6:00 p.m.). Animals were given free access to food (Harlan Teklad Global 18% protein (Madison, Wis.)) and water during a minimum 2-day habituation period to the laboratory. Animals that were used in the study were handled, housed, and sacrificed (using compressed CO2) in accord with the current NIH guidelines regarding the use and care of laboratory animals, and all applicable local, state, and federal regulations and guidelines. Animals are identified by cage number, and by markings applied to the proximal tip of the tail using a permanent marker. Group sizes (n=8, and therefore 30-50 animals per study) provide reliable estimates of treatment effects, and this species and strain of mouse has been recognized as appropriate for pharmacology studies.
To measure efficacy of the compounds the compounds were tested using a tail suspension test. The tail suspension test is a behavioral test used to evaluate the efficacy of antidepressant drugs in rodents. In the TST, mice (n=8/group) were suspended by the tail with tape approximately 30-50 cm above the lab bench. Mice are positioned such that the base of their tail is perpendicular to the lab bench. Each mouse is given 1 trial that last 6 minutes. The total duration of immobility is calculated as the percentage of time that the mouse is immobile. The duration of immobility is the main parameter measured. This is calculated from the cumulated time during which the animals is absent of initiated movements including passive swaying. When antidepressant drugs are administered, immobility is decreased by a variety of classes of antidepressant drugs. One or more of the compounds show antidepressant activity.

[3] = tested on: mouse; assay: Tactile allodynia produced by nitroglycerin (migraine model, mouse); format: in vivo; conditions: route sc, nitroglycerin 10 mg/kg ip, p < 0.05 vs vehicle; for minimal effective dose: read-out: Active Migraine Doses
Protocol: Compounds were tested for efficacy in rodent models of nitroglycerine induced migraine. In this model both rats and mice can be induced to have a behavioral response consistent with the progression of a migraine attack by the intraperitoneal injection of nitroglycerin. In this test mice or rats (n=8/group) are given an intraperitoneal injection of nitroglycerin at 10 mg/kg. After 90 minutes the animals are subcutaneously dosed with test compound. A measurement of mechanical allodynia will be obtained using the up/down method with seven von Frey monofilaments. There is a specific series used for rat and mouse. Each monofilament is delivered to the hind paw for approximately 1-2 seconds. If there is a response, the next lower force will be delivered. This procedure will be performed until no response was made at the highest force or until four stimuli are administered following the initial response. The 50% paw withdrawal threshold for the hind paw will be calculated using the following formula: [Xth]log=[vFr]log+ky where [vFr] is the force of the last von Frey used, k is the average interval (in log units) between the von Frey monofilaments, and y is a value that depends upon the pattern of withdrawal responses. Testing for tactile sensitivity will be performed and a withdrawal value will be assigned as the tactile sensitivity (expressed in grams of force required to elicit a response) for the injected paw for each animal. Data is presented as the mean grams required to produce a hind paw withdrawal from the von Frey stimulus. […] Compounds found to be effective in this model of migraine at the doses indicated, although other doses may also be active. Other compounds described herein were not necessarily tested, but are expected to be able have some level of efficacy.

[4] = tested on: mouse; assay: Tactile allodynia produced by intraplantar Freund's Complete Adjuvant, von Frey (mouse); format: in vivo; conditions: route sc, p < 0.05 vs vehicle
Protocol: (§1) Animals were acclimated to the vivarium for at least 48 hr prior to behavioral testing. Inflammation was induced for both rodent species with the administration of an intraplantar (subcutaneous injection into the plantar surface of the hind paw, i.pl.) injection of 0.10 ml Freund's Complete Adjuvant (FCA).
For mouse studies, the experiments were conducted 48 hours after FCA administration. Tactile allodynia was measured using a series of von Frey monofilaments. These filaments are bendable, plastic and intended to poke, not penetrate, the skin. Animals were placed in a Plexiglas chamber (approximately 10 cm×20 cm×25 cm) and allowed to habituate for 5-10 minutes. The chamber was positioned on top of a mesh screen so that von Frey monofilaments can be presented to the plantar surface of the hind paw that is inflamed. The measurement of tactile sensitivity for the injected hind paw is obtained using the up/down method (LaBuda and Little, 2005, J Neurosci. Methods, 144, 175) with […]. Each trial will start with a von Frey force of 0.6 grams delivered to the hind paw for approximately 1-2 seconds. If there was no withdrawal response, the next higher force was be delivered. If there was a response, the next lower force was delivered. This procedure was performed until no response was made at the highest force (2 grams) or until four stimuli are administered following the initial response. The 50% paw withdrawal threshold for the hind paw was be calculated using the following formula: [Xth]log=[vFi]log+ky where [vFr] is the force of the last von Frey used, k is the average interval (in log units) between the von Frey monofilaments, and y is a value that depends upon the pattern of withdrawal responses (Dixon, Annual Review Pharmacol Toxicol, 1980, 20, 441).

[5] = tested on: rat; assay: Mechanical allodynia after Freund's Complete Adjuvant, Randall-Selitto (rat); format: in vivo; conditions: route sc, p < 0.05 vs vehicle
Protocol: as §1
For rat studies, the experiments were conducted 24 hours after CFA administration. Rats are tested for mechanical allodynia in a Randall-Selitto apparatus. The inflamed paw is put on a pedestal and a pointed force of increasing intensity (0 to 250 grams) is applied to the paw. When the animal struggles to withdraw from the force the test is stopped and the force to induce that struggle is recorded. Data may be presented as mean grams of force to withdrawal or a percentage of the maximum possible effect.

[6] = target: T1, delta-opioid receptor (Accession NP_000902) (Homo sapiens, UniProt P41143); assay: β-arrestin recruitment assay (DiscoveRx PathHunter); format: cell-based; conditions: HEK-293 cells
T1 sequence (P41143 whole entry): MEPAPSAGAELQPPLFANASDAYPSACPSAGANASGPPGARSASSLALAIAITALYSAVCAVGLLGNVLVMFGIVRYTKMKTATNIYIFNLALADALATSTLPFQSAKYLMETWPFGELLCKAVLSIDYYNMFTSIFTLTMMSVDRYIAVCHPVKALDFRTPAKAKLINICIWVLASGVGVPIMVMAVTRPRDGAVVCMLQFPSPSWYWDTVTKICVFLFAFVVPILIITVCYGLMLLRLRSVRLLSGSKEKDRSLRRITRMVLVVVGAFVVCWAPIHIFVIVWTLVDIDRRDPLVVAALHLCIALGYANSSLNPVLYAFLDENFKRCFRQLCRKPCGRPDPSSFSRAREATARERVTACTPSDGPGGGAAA
Protocol: (§2) Plasmids encoding delta-opioid receptor (Accession NP_000902), mu-opioid receptor (Accession NP_000905) and kappa-opioid receptor (Accession Assession NP_000903) were generated in the pCMV-Prolink backbone and transfected into an EA-arrestin parental human embryonic kidney (HEK-293) cell line from DiscoveRx Corporation. Clonal stable lines were subsequently selected under G418.
Cell lines were grown adherently in Minimum Essential Media (Cellgro cat #10-010-CM) containing 10% fetal bovine serum (Hyclone cat #SH30071.03), 4 mM glutamine (Cellgro cat #25-005-CI), 150 ug/ml hygromycin B (Cellgro cat #30-240-CR), 150 ug/ml G418 (Cellgro cat #30-234-CR), and 50 u/50 ug penicillin/streptomycin (Lonza cat #17-603E). Prior to the assay cells were removed from the flasks with CellStripper (Cellgro cat #25-056-CI), repeatedly pipetted to disperse cells, and spun at low speed for 5 min at room temperature. Cells were then resuspended at 250,000 cells/ml in growth media and plated at 5,000 cells/well in 384 well plates (Greiner part #784080). […]
Receptor mediated beta-arrestin recruitment was determined using the DiscoveRx β-arrestin PathHunter Detection kit (cat #93-0001). […] Following a 60 minute incubation at 37° C. the components of the DiscoveRx β-arrestin PathHunter Detection kit were added as directed and the plates were read after 1 hour on a BMG PheraStar plate reader.

[7] = target: T1, delta-opioid receptor (Accession NP_000902); assay: cAMP assay (receptor G-protein mediated response, HTRF); format: cell-based
Protocol: as §2
Cell lines were grown adherently in Minimum Essential Media (Cellgro cat #10-010-CM) containing 10% fetal bovine serum (Hyclone cat #SH30071.03), 4 mM glutamine (Cellgro cat #25-005-CI), 150 ug/ml hygromycin B (Cellgro cat #30-240-CR), 150 ug/ml G418 (Cellgro cat #30-234-CR), and 50 u/50 ug penicillin/streptomycin (Lonza cat #17-603E). […]
Receptor G-protein mediated responses were determined by measuring changes in intracellular cAMP using CisBio HTRF cAMP HiRange kit (cat #62AM6PEJ) based on time-resolved fluorescence resonance energy transfer (TR-FRET). […] Following a 30 minute incubation at 37° C. the components of the cAMP HiRange kit were added as directed and the plates were read after 1 hour on a BMG PheraStar plate reader. Responses were measured as the ratio of fluorescence at 665 nm/620 nm per manufacturer's instructions.

SMILES	Active Migraine Doses [1]	minimal effective dose ([2]; po)	minimal effective dose [3]	further results
COc1ccc([C@@H]2CCN(CCn3cccc3)[C@H](C)[C@H]2COc2ccc3c(c2)C(=O)NC3)cc1 [Compound B0876, (−)-6-{[trans, trans-4-(4-methoxyphenyl)-2-methyl-1-[2-(1H-pyrrol-1-yl)ethyl]piperidin-3-yl]methoxy}-2,3-dihydro-1H-isoindol-1-one]	≤10 mg/kg	≤ 30 mg/kg	≤ 10 mg/kg	–
COc1ccc([C@@H]2CCN(CCC=C(F)F)[C@H](C)[C@H]2COc2ccc3c(c2)C(=O)NC3)cc1 [Compound B1145, (−)-6-{[trans, trans-1-(4,4-difluorobut-3-en-1-yl)-4-(4-methoxyphenyl)-2-methylpiperidin-3-yl]methoxy}-2,3-dihydro-1H-isoindol-1-one]	–	≤ 10 mg/kg	≤ 10 mg/kg	Active CFA Dose [4]: ≤10 mg/kg
COc1cc(F)cc(C2CCN(CCn3cccc3)C(C)C2COc2ccc3c(c2)C(=O)NC3)c1 (mixture of isomers) [Compound B1274, (+/−)-6-{[(trans, trans)-4-(3-fluoro-5-methoxyphenyl)-2-methyl-1-[2-(1H-pyrrol-1-yl)ethyl]piperidin-3-yl]methoxy}-2,3-dihydro-1H-isoindol-1-one]	–	–	–	Active TST Dose [2]: ≤10 mg/kg
C[C@@H]1[C@@H](COc2ccc3c(c2)C(=O)NC3)[C@H](c2ccccc2)CCN1CCC=C(F)F [Compound B1211]	–	–	≤ 10 mg/kg	minimal effective dose [2]: ≤ 10 mg/kg
C[C@@H]1[C@@H](COc2ccc3c(c2)C(=O)NC3)[C@H](c2ccc(F)cc2)CCN1CC1CC1 [Compound B0720]	–	≤ 10 mg/kg	≤ 10 mg/kg	Active CFA Dose [5]: ≤30 mg/kg
COCCOc1ccc([C@@H]2CCN(CCn3cccc3)[C@H](C)[C@H]2COc2ccc3c(c2)C(=O)NC3)cc1F [Compound B1205, (−)-6-{[trans, trans-4-[3-fluoro-4-(2-methoxyethoxy)phenyl]-2-methyl-1-[2-(1H-pyrrol-1-yl)ethyl]piperidin-3-yl]methoxy}-2,3-dihydro-1H-isoindol-1-one]	≤10 mg/kg	≤ 30 mg/kg	≤ 10 mg/kg	–
Fc1ccc([C@@H]2CCNC[C@H]2COc2ccc3c(c2)OCO3)cc1 [Paroxetine]	–	–	–	hDOR B Span [6]: <100; EC50 ([6]; read-out: hDOR B pEC50 (converted)): > 1 µM; hDOR G Span ([7]; G-protein mediated cAMP response, HEK-293 cells): <100; selectivity for the delta-opioid receptor ([7]; also tested at mu and kappa-opioid receptor): non-selectivity
COCCOc1ccc([C@@H]2CCN(CCc3ccccc3)[C@H](C)[C@H]2COc2ccc3c(c2)C(=O)NC3)cc1F [Compound B1194, (−)-6-{[trans, trans-4-[3-fluoro-4-(2-methoxyethoxy)phenyl]-2-methyl-1-(2-phenylethy)piperidin-3-yl]methoxy}-2,3-dihydro-1H-isoindol-1-one]	–	–	≤ 10 mg/kg	minimal effective dose [2]: ≤ 10 mg/kg
COCCOc1ccc([C@@H]2CCN(CCc3ccccc3F)[C@H](C)[C@H]2COc2ccc3c(c2)C(=O)NC3)cc1 [Compound B1079]	–	≤ 30 mg/kg	–	–
COc1cc(F)cc([C@@H]2CCN(CCn3cccc3)[C@H](C)[C@H]2COc2ccc3c(c2)C(=O)NC3)c1 (racemic) [Compound B1401, (−)-6-{[trans, trans-4-(3-fluoro-5-methoxyphenyl)-2-methyl-1-[2-(1H-pyrrol-1-yl)ethyl]piperidin-3-yl]methoxy}-2,3-dihydro-1H-isoindol-1-one]	≤10 mg/kg	–	≤ 10 mg/kg	minimal effective dose [2]: ≤ 10 mg/kg
CC1C(COc2ccc3c(c2)C(=O)NC3)C(c2ccc3c(c2)OCCC3)CCN1CCn1cccc1 (single isomer, unassigned; (-)) [Compound B1365, (−)-6-{[trans, trans-4-(3,4-dihydro-2H-1-benzopyran-7-yl)-2-methyl-1-[2-(1H-pyrrol-1-yl)ethyl]piperidin-3-yl]methoxy}-2,3-dihydro-1H-isoindol-1-one]	≤10 mg/kg	–	–	Active TST Dose [2]: ≤10 mg/kg; Active Migraine Doses [3]: ≤10 mg/kg
